Measurements: ChEMBL document CHEMBL1136837, “Unified QSAR approach to antimicrobials. 4. Multi-target QSAR modeling and comparative multi-distance study of the giant components of antiviral drug-drug complex networks” (Bioorg Med Chem, 2009)

Columns and labels:
Hepatitis B virus = experiment: Antiviral activity against Hepatitis B virus; type: functional, organism-based
[1] = tested on: unidentified influenza virus; experiment: Antiviral activity against influenza virus; type: functional, organism-based
Human alphaherpesvirus 1 = experiment: Antiviral activity against Herpes simplex virus 1; type: functional, organism-based; conditions: Human alphaherpesvirus 1
Human alphaherpesvirus 2 = experiment: Antiviral activity against Herpes simplex virus 2; type: functional, organism-based; conditions: Human alphaherpesvirus 2
Human betaherpesvirus 5 = experiment: Antiviral activity against Human cytomegalovirus; type: functional, organism-based; conditions: Human betaherpesvirus 5
Vaccinia virus = experiment: Antiviral activity against Vaccinia virus; type: functional, organism-based, Orthopoxvirus vaccinia; conditions: Orthopoxvirus vaccinia
Human alphaherpesvirus 3 = experiment: Antiviral activity against Varicella zoster virus; type: functional, organism-based
[2] = tested on: Human immunodeficiency virus 1; experiment: Antiviral activity against HIV1; type: functional, organism-based
Hepatitis C virus = experiment: Antiviral activity against Hepatitis C virus; type: functional, organism-based, Hepacivirus hominis; conditions: Hepatitis C virus

CCOc1ccc(Sc2nc(N)nc3c2ncn3CCOCP(=O)(OCC(F)(F)F)OCC(F)(F)F)cc1 was tested, and the IC50 (Hepatitis B virus) was 640 nM.

CC(C)CC1=N/C(=C\c2ccc(F)cc2)C(=O)NC1=O showed an IC50 [1] of 365000 nM.

O=c1[nH]c(=O)n([C@H]2C[C@H](O)[C@]3(CO)C[C@H]23)cc1/C=C/Br showed an IC50 (Human alphaherpesvirus 1) of 6410 nM and an IC50 (Human alphaherpesvirus 2) of 291000 nM.

O=c1[nH]c(=O)n([C@H]2C[C@H](O)[C@]3(CO)C[C@H]23)cc1Br showed an IC50 (Human alphaherpesvirus 1) of 1230 nM and an IC50 (Human alphaherpesvirus 2) of 2200 nM.

Compound Nc1nc(Sc2ccc(Cl)cc2)c2ncn(CCOCP(=O)(OCC(F)(F)F)OCC(F)(F)F)c2n1 has an IC50 (Hepatitis B virus) of 120 nM.

Compound CCc1nn([C@H]2C[C@H](O)[C@@H](CO)S2)c(=O)nc1O has an IC50 (Human alphaherpesvirus 1) of 120000 nM, an IC50 (Human alphaherpesvirus 2) of 200000 nM and an IC50 (Human betaherpesvirus 5) of 40000 nM. It also gave an IC50 (Vaccinia virus) of 200000 nM and an IC50 (Human alphaherpesvirus 3) of 40000 nM.

In the case of N#Cc1c(Cl)n([C@@H]2O[C@H](CN=[N+]=[N-])[C@@H](O)[C@H]2O)c2cc(Cl)c(Cl)cc12, the IC50 [2] is reported as 15000 nM and the IC50 (Human betaherpesvirus 5) is reported as 3000 nM.

Compound C[C@@H]1C(=O)N(C(=O)C2CC2)[C@H]2CCN(C(=O)[C@@H]3CCCN3C(=O)Nc3ccc(Cl)cc3)[C@H]12 has an IC50 (Human betaherpesvirus 5) of 260 nM.

Work on C[C@@H]1C(=O)N(C(=O)C2CC2)[C@H]2CCN(C(=O)[C@@H]3CCCN3C(=O)c3cccc4ccccc34)[C@H]12 yielded an IC50 (Human betaherpesvirus 5) of 890 nM.

CCC(=O)c1c(O)n(O)c2cc(NC(=O)Nc3ccc(Cl)cc3)ccc12 gave an IC50 [1] of 38000 nM.

Nc1ncnc2c1ncn2CCOCP(=O)(O)O [ADEFOVIR] was tested, and the IC50 (Human alphaherpesvirus 1) was 0.024 nM.

With CCOC(=O)Cc1c(N)nc(N)n(CCOCP(=O)(O)O)c1=O the IC50 (Human alphaherpesvirus 1) was 1.2 nM, the IC50 (Human alphaherpesvirus 2) was 1.2 nM and the IC50 [2] was 0.3 nM. For the same compound, the IC50 (Human betaherpesvirus 5) was 0.15 nM, the IC50 (Vaccinia virus) was 1.2 nM and the IC50 (Human alphaherpesvirus 3) was 0.15 nM.

Compound C[C@@H]1C(=O)N(C(=O)C2CC2)[C@H]2CCN(C(=O)[C@@H]3CCCN3C(=O)Nc3cccc(Cl)c3)[C@H]12 has an IC50 (Human betaherpesvirus 5) of 650 nM.

Work on Nc1ccn(C[C@@H](CO)OCP(=O)(O)O)c(=O)n1 (stereo in doubt; form 2) [CIDOFOVIR] yielded an IC50 (Vaccinia virus) of 32000 nM.

With O=C(NO)c1ccccc1 [BENZOHYDROXAMATE] the IC50 [1] was 500000 nM.

Nc1cc(OC[C@H](CO)OCP(=O)(O)O)nc(N)n1 showed an IC50 (Human alphaherpesvirus 1) of 0.0048 nM, an IC50 (Human alphaherpesvirus 2) of 0.017 nM and an IC50 (Vaccinia virus) of 0.0065 nM.

C[C@@H]1C(=O)N(C(=O)C2CC2)[C@H]2CCN(C(=O)[C@@H]3CCCN3C(=O)Nc3ccccc3)[C@H]12 was tested, and the IC50 (Human betaherpesvirus 5) was 1400 nM.

CC(C)OC(=O)OCOP(=O)(CO[C@H](C)Cn1cnc2c(N)ncnc21)OCOC(=O)OC(C)C [TENOFOVIR DISOPROXIL] showed an IC50 (Vaccinia virus) of 157000 nM.

For CN(C)c1cc(O)nc(N)n1, the IC50 (Human alphaherpesvirus 1) was 2.6 nM, the IC50 (Human alphaherpesvirus 2) was 2.6 nM and the IC50 (Human alphaherpesvirus 3) was 0.325 nM.

CCCCCCCCCCCCCCCCCCOCCOP1(=O)CO[C@@H](Cn2ccc(N)nc2=O)CO1 (stereo not given in full) was tested, and the IC50 (Vaccinia virus) was 580 nM.

CCC(=O)c1c(O)n(O)c2cc(NC(=O)Nc3ccccc3Cl)ccc12 was tested, and the IC50 [1] was 50000 nM.

Nc1nc(N)c(Br)c(OCCOCP(=O)(O)O)n1 showed an IC50 (Human alphaherpesvirus 2) of 0.7 nM, an IC50 (Human betaherpesvirus 5) of 0.15 nM and an IC50 (Vaccinia virus) of 0.7 nM. The IC50 (Human alphaherpesvirus 3) was 0.15 nM.

O=C(Nc1ccccc1)Nc1ccc2c(C(=O)c3ccccc3)c(O)n(O)c2c1 showed an IC50 [1] of 29000 nM.

O=c1[nH]c2nccnc2c(=O)n1O was tested, and the IC50 [1] was 95000 nM.

C[C@@H]1C(=O)N(C(=O)C2CC2)[C@H]2CCN(C(=O)[C@@H]3CCCN3C(=O)Nc3cccc4ccccc34)[C@H]12 gave an IC50 (Human betaherpesvirus 5) of 650 nM.

COc1c(C=O)c2cc(Cl)c(Cl)cc2n1[C@H]1C[C@H](O)[C@@H](CO)O1 showed an IC50 [2] of 100000 nM and an IC50 (Human betaherpesvirus 5) of 100000 nM.

O=C(O)/C=C/C(=O)c1ccccc1 was tested, and the IC50 [1] was 500000 nM.

Compound CC(=O)c1c(O)n(O)c2cc(NC(=O)Nc3cccc(C(=O)O)c3)ccc12 has an IC50 [1] of 14000 nM.

In the case of CC(=O)c1c(Br)n([C@H]2C[C@H](O)[C@@H](CO)O2)c2cc(Cl)c(Cl)cc12, the IC50 (Human betaherpesvirus 5) is reported as 340 nM.

For CC(C)OP(=O)(COCCOc1cc(N)ncn1)OC(C)C, the IC50 (Human alphaherpesvirus 1) was 1.2 nM, the IC50 (Human alphaherpesvirus 2) was 1.2 nM and the IC50 [2] was 6010 nM. The IC50 (Human alphaherpesvirus 3) was 0.15 nM.

In the case of O=C(Nc1ccc2c(c1)N(O)C(=O)/C2=C(\O)c1ccccc1)c1ccc(NS(=O)(=O)c2cccs2)cc1, the IC50 [1] is reported as 48000 nM.

Work on O=C1c2ccccc2C(=O)N1O yielded an IC50 [1] of 500000 nM.

CCCCCCCCCCCCCCCCCCOCCCOP(=O)(O)CO[C@H](CO)Cn1ccc(N)nc1=O showed an IC50 (Human betaherpesvirus 5) of 0.03 nM.

Work on Cc1nn([C@H]2C[C@H](O)[C@@H](CO)S2)c(=O)nc1O yielded an IC50 (Human alphaherpesvirus 1) of 18000 nM, an IC50 (Human alphaherpesvirus 2) of 3300 nM and an IC50 (Human betaherpesvirus 5) of 200000 nM. The IC50 (Vaccinia virus) was 2200 nM and the IC50 (Human alphaherpesvirus 3) was 5000 nM.

CC(C)Oc1ccc(NC(=O)N2CCC[C@H]2C(=O)N2CC[C@H]3[C@H]2[C@H](C)C(=O)N3C(=O)C2CC2)cc1 gave an IC50 (Human betaherpesvirus 5) of 180 nM.

Compound O=C(O)C(=O)CCc1ccccc1 has an IC50 (Hepatitis C virus) of 50000 nM and an IC50 [1] of 500000 nM.

O=C(Nc1cccc(C(=O)O)c1)Nc1ccc2c(C(=O)c3ccccc3)c(O)n(O)c2c1 showed an IC50 [1] of 3000 nM.

COC(=O)/C(O)=C/C(=O)c1ccccc1 gave an IC50 [1] of 500000 nM.

O=C(/C=C/c1ccccc1Cl)Nc1ccc(C(=O)Nc2ccc3c(c2)N(O)C(=O)/C3=C(\O)c2ccccc2)cc1 was tested, and the IC50 [1] was 9500 nM.

O[C@@H]1[C@H](O)[C@@H](n2c(Cl)nc3cc(Cl)c(Cl)cc32)O[C@H]1C(F)(F)F gave an IC50 (Human betaherpesvirus 5) of 450 nM.

CCC(=O)c1c(O)n(O)c2cc(NC(=O)c3ccc(Cl)cc3Cl)ccc12 showed an IC50 [1] of 45000 nM.

For O=C(O)C(=O)CC(=O)c1ccccc1OCc1ccccc1, the IC50 (Hepatitis C virus) was 44000 nM.
